The assay has as its target T1, BA/F3-FLT3-ITD + F691L cells (Homo sapiens, UniProt P36888, F691L, cells depend on it, form not given).
T1 sequence (P36888 1-993 F691L): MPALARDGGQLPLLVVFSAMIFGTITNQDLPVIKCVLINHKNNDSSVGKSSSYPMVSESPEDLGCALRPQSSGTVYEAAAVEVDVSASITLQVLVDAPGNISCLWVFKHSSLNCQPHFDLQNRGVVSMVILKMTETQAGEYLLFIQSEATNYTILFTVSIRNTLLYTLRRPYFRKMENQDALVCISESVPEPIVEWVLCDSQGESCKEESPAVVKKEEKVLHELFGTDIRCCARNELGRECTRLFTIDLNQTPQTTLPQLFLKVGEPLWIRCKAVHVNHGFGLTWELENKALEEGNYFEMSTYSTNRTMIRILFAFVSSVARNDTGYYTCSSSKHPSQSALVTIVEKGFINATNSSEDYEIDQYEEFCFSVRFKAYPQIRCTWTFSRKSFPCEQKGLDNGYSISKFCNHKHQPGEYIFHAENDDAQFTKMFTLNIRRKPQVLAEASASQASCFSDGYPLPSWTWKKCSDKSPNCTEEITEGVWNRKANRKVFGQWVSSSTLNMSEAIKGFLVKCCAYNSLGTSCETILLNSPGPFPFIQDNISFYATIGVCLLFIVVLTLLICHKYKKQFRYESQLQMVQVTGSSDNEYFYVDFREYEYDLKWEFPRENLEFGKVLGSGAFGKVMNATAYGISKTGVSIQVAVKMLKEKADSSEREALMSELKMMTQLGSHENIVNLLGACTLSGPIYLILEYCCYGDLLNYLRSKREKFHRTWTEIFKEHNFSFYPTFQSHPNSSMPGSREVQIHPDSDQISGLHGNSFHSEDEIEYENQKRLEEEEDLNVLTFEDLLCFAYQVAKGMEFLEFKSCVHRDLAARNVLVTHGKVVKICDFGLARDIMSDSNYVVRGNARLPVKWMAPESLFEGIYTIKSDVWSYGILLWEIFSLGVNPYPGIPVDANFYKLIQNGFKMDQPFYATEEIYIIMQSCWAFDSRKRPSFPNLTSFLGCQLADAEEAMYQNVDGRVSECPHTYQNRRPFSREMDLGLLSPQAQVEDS
Nature of the assay: BA/F3-FLT3-ITD + F691L cell proliferation assay (CellTiter-Glo). The format is cell-based, murine. The conditions noted are these: BaF3 FLT3 ITD/F691L cells; read-out: Cell Activity (IC50 μM) BaF3_FLT3_ITD/F691L. The source says: The FLT3 inhibitors may also be assessed using leukemia cell lines that express endogenous FLT3-ITD or cells that are engineered to express wild-type or mutant FLT3. The cells expressing endogenous FLT3 are dependent upon FLT3 catalytic activity for growth. For the engineered cells, murine BA/F3 cells were transfected with full-length FLT3 (either wild-type, or containing the ITD, D835Y, or F691L mutations, as noted). The parental BA/F3 cells are dependent upon Interleukin-3 (IL-3) for survival, and introduction of the FLT3 constructs renders these cells dependent upon FLT3 kinase activity when cultured in the absence of IL-3. Engineered BA/F3 cell growth assays can be performed in either the absence or presence of IL-3, to assess the compound inhibition of FLT3 or to detect the presence of off-target activity, respectively. Inhibitors of FLT3 kinase activity reduce or eliminate the FLT3 oncogenic signaling, resulting in reduced cell proliferation. This inhibition is measured as a function of compound concentration to assess IC50 values.
Cells were seeded at 1×10^4 cells per well of a 96 well cell culture plate in 50 μl of cell culture medium. Compounds were dissolved in DMSO, typically at a concentration of 5 mM and were serially diluted 1:3 for a total of eight points and added to the cells to final concentrations of 10, 3.3, 1.1, 0.37, 0.12, 0.041, 0.014 and 0.0046 μM in 100 μl cell culture medium (final concentration 0.2% DMSO). […] The cells were incubated at 37° C., 5% CO2 for three days. CellTiter-Glo Buffer (Promega Cell Viability Assay catalog #G7573) and substrate were equilibrated to room temperature, and enzyme/substrate Recombinant Firefly Luciferase/Beetle Luciferin was reconstituted. The cell plates were equilibrated to room temperature for 30 minutes, then lysed by addition of an equivalent volume of the Celltiter-Glo Reagent. The plate was mixed for 10 minutes on a plate shaker to lyse the cells. The plates were read on a Tecan M1000 using Luminescence protocol modified to read 0.1 s per well. The luminescence reading assesses the ATP content, which correlates directly with cell number such that the reading as a function of compound concentration was used to determine the IC50 value.
(Cellular ATP, detected with luciferase, serves as a proxy for viable cell number.)
Take `COc1cnc2[nH]cc(-c3ccc4ncn(-c5ccc(F)cc5)c4c3)c2c1` [P-103, 1-(4-fluorophenyl)-6-(5-methoxy-1H-pyrrolo[2,3-b]pyridin-3-yl)benzimidazole]: the GI50 was in the range of 0.0001 to 1 µM.

For `FC(F)(F)Oc1cccc(C#Cc2cnc3[nH]cc(-c4ccc5ncn(C6CCCNC6)c5c4)c3n2)c1` (stereo not shown) [P-246, 7-[3-(3-piperidyl)benzimidazol-5-yl]-2-[2-[3-(trifluoromethoxy)phenyl]ethynyl]-5H-pyrrolo[2,3-b]pyrazine], the GI50 was 1 to 10 µM.

As for `COc1cc(-c2cnc3[nH]cc(-c4ccc5ncn(C6CCCN(C(C)=O)C6)c5c4)c3n2)ccn1` (stereo not shown) [P-260, 1-[3-[6-[2-(2-methoxy-4-pyridyl)-5H-pyrrolo[2,3-b]pyrazin-7-yl]benzimidazol-1-yl]-1-piperidyl]ethanone], the GI50 was in the range of 0.0001 to 1 µM.

As for `COc1ncccc1C#Cc1cnc2[nH]cc(-c3ccc4ncn(C(C)(C)C)c4c3)c2n1` [P-250, 7-(3-tert-butylbenzimidazol-5-yl)-2-[2-(2-methoxy-3-pyridyl)ethynyl]-5H-pyrrolo[2,3-b]pyrazine], the GI50 lay in the range of 0.0001 to 1 µM.

For the compound `N#Cc1cccc(-c2cnc3[nH]cc(-c4ccc5ncn(-c6ccc(F)c(Cl)c6)c5c4)c3c2)c1` [P-210, 3-[3-[3-(3-chloro-4-fluoro-phenyl)benzimidazol-5-yl]-1H-pyrrolo[2,3-b]pyridin-5-yl]benzonitrile], the GI50 fell in the range of 0.0001 to 1 µM.

Regarding `CC(C)(C)n1cnc2ccc(-c3c[nH]c4ncc(-c5cnn(CC(F)(F)F)c5)cc34)cc21` [P-252, 1-tert-butyl-6-[5-[1-(2,2,2-trifluoroethyl)pyrazol-4-yl]-1H-pyrrolo[2,3-b]pyridin-3-yl]benzimidazole], the GI50 fell in the range of 0.0001 to 1 µM.

Consider `CC(C)(C)n1cnc2ccc(-c3c[nH]c4ncc(-c5cccc(S(=O)(=O)N6CCCC6)c5)cc34)cc21` [P-220, 1-tert-butyl-6-[5-(3-pyrrolidin-1-ylsulfonylphenyl)-1H-pyrrolo[2,3-b]pyridin-3-yl]benzimidazole], for which the GI50 was in the range of 0.0001 to 1 µM.

For `CC(C)(C)n1cnc2ccc(-c3c[nH]c4ncc(-c5cccc(N6CCCCS6(=O)=O)c5)nc34)cc21` [P-227, 2-[3-[7-(3-tert-butylbenzimidazol-5-yl)-5H-pyrrolo[2,3-b]pyrazin-2-yl]phenyl]thiazinane 1,1-dioxide], the GI50 was 0.0001 to 1 µM.

On to `CC(C)S(=O)(=O)Nc1cccc(-c2cnc3[nH]cc(-c4ccc5ncn(C(C)(C)C)c5c4)c3n2)c1` [P-232, N-[3-[7-(3-tert-butylbenzimidazol-5-yl)-5H-pyrrolo[2,3-b]pyrazin-2-yl]phenyl]propane-2-sulfonamide], for which the GI50 lay in the range of 0.0001 to 1 µM.

As for `c1cc(-c2cnc3[nH]cc(-c4ccc5ncn(C6CCCNC6)c5c4)c3n2)cc(N2CCOCC2)n1` (stereo not shown) [P-262, 4-[4-[7-[3-(3-piperidyl)benzimidazol-5-yl]-5H-pyrrolo[2,3-b]pyrazin-2-yl]-2-pyridyl]morpholine], the GI50 was in the range of 0.0001 to 1 µM.

Consider `O=C(Nc1cccc(F)c1)c1cnc2[nH]cc(-c3ccc4ncn(C5CCCNC5)c4c3)c2c1` (stereo not shown) [P-178, N-(3-fluorophenyl)-3-[3-(3-piperidyl)benzimidazol-5-yl]-1H-pyrrolo[2,3-b]pyridine-5-carboxamide], for which the GI50 was 0.0001 to 1 µM.

In the case of `CC(C)S(=O)(=O)Nc1cccc(-c2cnc3[nH]cc(-c4ccc5ncn(C6CCCNC6)c5c4)c3c2)c1` (stereo not shown) [P-215, N-[3-[3-[3-(3-piperidyl)benzimidazol-5-yl]-1H-pyrrolo[2,3-b]pyridin-5-yl]phenyl]propane-2-sulfonamide], the GI50 lay in the range of 0.0001 to 1 µM.

On to `COc1cc(-c2cnc3[nH]cc(-c4ccc5ncn(C6CCCN(C)C6)c5c4)c3n2)ccn1` (stereo not shown) [P-271, 2-(2-methoxy-4-pyridyl)-7-[3-(1-methyl-3-piperidyl)benzimidazol-5-yl]-5H-pyrrolo[2,3-b]pyrazine], for which the GI50 was 0.0001 to 1 µM.

With `COC(=O)N1CCCC(n2cnc3ccc(-c4c[nH]c5ncc(-c6ccnc(OC)c6)nc45)cc32)C1` (stereo not shown) [P-261, methyl 3-(6-(2-(2-methoxypyridin-4-yl)-5H-pyrrolo[2,3-b]pyrazin-7-yl)-1H-benzo[d]imidazol-1-yl)piperidine-1-carboxylate], the GI50 is 0.0001 to 1 µM.

Take `C(#Cc1cnc2[nH]cc(-c3ccc4ncn(C5CCCNC5)c4c3)c2n1)c1ccccc1` (stereo not shown) [P-248, 2-(2-phenylethynyl)-7-[3-(3-piperidyl)benzimidazol-5-yl]-5H-pyrrolo[2,3-b]pyrazine]: the GI50 lay within 0.0001 to 1 µM.

In the case of `FC(F)n1cc(-c2cnc3[nH]cc(-c4ccc5ncn(C6CCCNC6)c5c4)c3n2)cn1` (stereo not shown) [P-257, 2-[1-(difluoromethyl)pyrazol-4-yl]-7-[3-(3-piperidyl)benzimidazol-5-yl]-5H-pyrrolo[2,3-b]pyrazine], the GI50 fell in the range of 0.0001 to 1 µM.

For `CC(C)(C)n1cnc2ccc(-c3c[nH]c4ncc(C(=O)Nc5cccc(C#N)c5)cc34)cc21` [P-218, 3-(3-tert-butylbenzimidazol-5-yl)-N-(3-cyanophenyl)-1H-pyrrolo[2,3-b]pyridine-5-carboxamide], the GI50 was 0.0001 to 1 µM.

Take `CC(C)(C)n1cnc2ccc(-c3c[nH]c4ncc(-c5cnn(C(F)F)c5)nc34)cc21` [P-255, 7-(3-tert-butylbenzimidazol-5-yl)-2-[1-(difluoromethyl)pyrazol-4-yl]-5H-pyrrolo[2,3-b]pyrazine]: the GI50 was 0.0001 to 1 µM.

As to `CC(C)(C)n1cnc2ccc(-c3c[nH]c4ncc(NC(=O)c5cccc(C#N)c5)cc34)cc21` [P-235, N-[3-(3-tert-butylbenzimidazol-5-yl)-1H-pyrrolo[2,3-b]pyridin-5-yl]-3-cyano-benzamide], the GI50 was 0.0001 to 1 µM.

Turning to `CC(C)(C)n1cnc2ccc(-c3c[nH]c4ncc(-c5ccnc(N6CCOCC6)c5)nc34)cc21` [P-228, 4-[4-[7-(3-tert-butylbenzimidazol-5-yl)-5H-pyrrolo[2,3-b]pyrazin-2-yl]-2-pyridyl]morpholine], the GI50 was in the range of 0.0001 to 1 µM.

As to `COc1cnc2[nH]cc(-c3cnc4ncn(Cc5cc(C)on5)c4c3)c2c1` [P-144, 3-[[6-(5-methoxy-1H-pyrrolo[2,3-b]pyridin-3-yl)imidazo[4,5-b]pyridin-1-yl]methyl]-5-methyl-isoxazole], the GI50 is 0.0001 to 1 µM.

On to `COc1cc(C(=O)Nc2cnc3[nH]cc(-c4ccc5ncn(C(C)(C)C)c5c4)c3c2)ccn1` [P-245, N-[3-(3-tert-butylbenzimidazol-5-yl)-1H-pyrrolo[2,3-b]pyridin-5-yl]-2-methoxy-pyridine-4-carboxamide], for which the GI50 lay in the range of 0.0001 to 1 µM.

Turning to `COc1cnc2[nH]cc(-c3ccc4ncn(Cc5ccc(F)cc5)c4c3)c2c1` [P-110, 1-[(4-fluorophenyl)methyl]-6-(5-methoxy-1H-pyrrolo[2,3-b]pyridin-3-yl)benzimidazole], the GI50 lay within 0.0001 to 1 µM.

`N#Cc1cccc(C(=O)Nc2cnc3[nH]cc(-c4ccc5ncn(C6CCCNC6)c5c4)c3c2)c1` (stereo not shown) [P-236, 3-cyano-N-[3-[3-(3-piperidyl)benzimidazol-5-yl]-1H-pyrrolo[2,3-b]pyridin-5-yl]benzamide]: the GI50 lay in the range of 0.0001 to 1 µM.

`c1cc(N2CCOCC2)ccc1-c1cnc2[nH]cc(-c3ccc4ncn(C5CCCNC5)c4c3)c2n1` (stereo not shown) [P-101, 4-[4-[7-[3-(3-piperidyl)benzimidazol-5-yl]-5H-pyrrolo[2,3-b]pyrazin-2-yl]phenyl]morpholine]: the GI50 fell in the range of 0.0001 to 1 µM.

The values are drawn from patent publication US10160755B2 (Plexxikon Inc., priority 2015, dated 2018).
